Literature values as cited in patent US6399115B2, “Method and composition for the treatment of benign prostate hypertrophy (BPH) and prevention of prostate cancer” (priority 1999, dated 2002).

Assays:
plasma testosterone = conditions: in vivo
[1] = among the major carotenoids
5 alpha-reductase = conditions: human prostatic tissue

SMILES: [Cu] [Copper]
- levels of plasma testosterone (plasma testosterone): reduce

SMILES: CC(C)=CCC/C(C)=C/C=C/C(C)=C/C=C/C(C)=C/C=C/C=C(C)/C=C/C=C(C)/C=C/C=C(\C)CCC=C(C)C [lycopene]
- quenching free oxygen radicals [1]: most effective and significant

SMILES: [Zn] [Zinc]
- relationship with 5 alpha-reductase activity (5 alpha-reductase): inverse relationship
